Where no end group is shown, it is not given here. SMCC = N-(4-carboxy-cyclohexyl-methyl)-maleimide cross-linker
What was measured:
3T3 cells = assay: 125I-PDGF-BB binding inhibition assay, 3T3 cells; set-up: species or system murine; conditions: at the concentrations tested, FIG. 2A
Protocol: (§1) 3) Effect of PDGF Peptides on ^125I-PDGF-BB Binding to 3T3 Cells and Human Smooth Muscle Cells p PDGF-BB binding inhibition assay was performed as described by Engstrom et al. A murine fibroblast cell line 3T3.A31 and human aortic smooth muscle cells were used.

Swiss 3T3.A31 = assay: [3H]-thymidine uptake assay on fibroblast cells in culture; type: cell-based, murine; conditions: for stimulatory (mitogenic) effect, thymidine uptake: FIG. 1
Protocol: 2) Effect of PDGF Peptides on Fibroblast Cells in Culture The stimulatory or inhibitory effect of the peptides on the murine fibroblast cell line Swiss 3T3.A31 were investigated using the [^3H]-thymidine uptake assay as described by Raines & Ross. The peptides were tested for their ability to stimulate thymidine uptake in the cells in culture.

[1] = tested on: corresponding immunising peptide; assay: ELISA titre of polyclonal antisera; type: binding; conditions: rabbits immunised with peptide linked to thyroglobulin, FIGS. 3A, 3B
Protocol: (§2) Rabbits and mice were immunised with the peptides either in the free form mixed with Freund's adjuvant or conjugated to a carrier protein (Thyroglobulin or keyhole haemocyanin). Antisera were tested for antibody production to the peptides and PDGF using ELISA, dot blot assays and SDS-PAGE followed by Western blotting.

PDGF β-receptors = PDGF β-receptors (Homo sapiens, UniProt P09619); conditions: reference [6]; cited from earlier work
Sequence of PDGF β-receptors (P09619 33-1106): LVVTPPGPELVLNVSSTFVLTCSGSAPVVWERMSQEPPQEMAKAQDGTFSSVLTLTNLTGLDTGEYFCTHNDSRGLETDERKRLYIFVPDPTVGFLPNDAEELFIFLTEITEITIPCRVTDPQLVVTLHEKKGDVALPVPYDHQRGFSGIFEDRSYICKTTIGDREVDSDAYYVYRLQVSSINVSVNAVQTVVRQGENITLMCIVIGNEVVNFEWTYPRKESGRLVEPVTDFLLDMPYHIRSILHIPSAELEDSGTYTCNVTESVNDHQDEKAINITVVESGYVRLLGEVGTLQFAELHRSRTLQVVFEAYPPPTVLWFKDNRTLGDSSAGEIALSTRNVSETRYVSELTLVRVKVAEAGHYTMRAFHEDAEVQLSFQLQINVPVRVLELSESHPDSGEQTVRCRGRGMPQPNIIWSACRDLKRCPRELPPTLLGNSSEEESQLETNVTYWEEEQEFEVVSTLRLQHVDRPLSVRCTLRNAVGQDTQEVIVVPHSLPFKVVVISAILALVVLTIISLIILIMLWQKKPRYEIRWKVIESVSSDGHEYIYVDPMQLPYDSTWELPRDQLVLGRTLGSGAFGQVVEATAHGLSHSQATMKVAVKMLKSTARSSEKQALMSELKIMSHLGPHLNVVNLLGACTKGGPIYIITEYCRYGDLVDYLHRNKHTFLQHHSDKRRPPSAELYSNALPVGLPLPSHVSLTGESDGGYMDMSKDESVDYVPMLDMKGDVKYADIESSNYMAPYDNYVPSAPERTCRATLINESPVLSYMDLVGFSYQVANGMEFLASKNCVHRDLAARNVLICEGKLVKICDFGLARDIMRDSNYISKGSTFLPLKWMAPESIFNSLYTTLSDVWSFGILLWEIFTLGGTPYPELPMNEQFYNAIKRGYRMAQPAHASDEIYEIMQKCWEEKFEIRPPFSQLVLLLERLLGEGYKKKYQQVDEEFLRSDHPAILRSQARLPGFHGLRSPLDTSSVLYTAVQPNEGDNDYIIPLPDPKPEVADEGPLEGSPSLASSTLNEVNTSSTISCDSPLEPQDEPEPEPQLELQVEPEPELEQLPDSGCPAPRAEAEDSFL

[2] = tested on: human smooth muscle cells; assay: 125I-PDGF-BB binding inhibition assay, human smooth muscle cells (peptides); conditions: FIG. 2B
Protocol: as §1

PDGF = target: T1, PDGF (Homo sapiens, UniProt P01127); assay: Western blot vs native PDGF; type: binding; conditions: polyclonal antisera
T1 construct: both chains undergo proteolytic cleavage at the N-termini during maturation; The B chain is also processed at the C-terminal end
T1 sequence (P01127 82-190 limits assumed): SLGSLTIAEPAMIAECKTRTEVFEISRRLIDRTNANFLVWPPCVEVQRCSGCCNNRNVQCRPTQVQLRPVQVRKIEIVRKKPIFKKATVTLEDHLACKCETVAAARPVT
Protocol: as §2

large bed sores = conditions: locally applied, reference [31]; cited from earlier work
[3] = tested on: smooth muscle cells of injured arteries; conditions: administration of PDGF, rat, reference [19]; cited from earlier work
PDGF receptor = conditions: cited from earlier work

With “AC-^73R-K-I-E-I-V-R-K-K^81-C (Ac-RKIEIVRKKC) [GP8]” the “inhibition of binding of radiolabelled PDGF-BB to 3T3 cells” value (3T3 cells) was “modest inhibition”, the “stimulatory (mitogenic) effect, thymidine uptake” value (from here on “stimulatory (mitogenic) effect”) (Swiss 3T3.A31) was “not as stimulatory as GP4” and the “antibodies to the corresponding immunising peptide by ELISA” value [1] was “high titre antibodies”.

For “ANFLVW—EIVRKKP [literature peptide corresponding to PDGF-B chain residues 35-40 and 78-83]”, the “antagonist for PDGF” value (PDGF β-receptors) is listed as “effective as an antagonist for PDGF”.

With “Ac-^25I-S-R-R-L-I-D-R-T-N-A-N-F-L-V-W-P-P-C^43-(SMCC)-^73R-K-I-E-I-V-R-K-K^81-C (Ac-ISRRLIDRTNANFLVWPPC(SMCC)RKIEIVRKKC; also: SMCC joins Cys43 (pos 19) to Arg73 (pos 20) in place of a peptide bond) [GP20]” the “inhibition of labelled PDGF binding to human smooth muscle cells” value [2] was “potent inhibitors”.

For “Ac-^25I-S-R-R-L-I-D-R-T-N-A-N-F-L^38 (Ac-ISRRLIDRTNANFL) [GP2]”, the “stimulatory (mitogenic) effect” value (Swiss 3T3.A31) was “low stimulatory effect”.

For “Ac-^25I-S-R-R-L-I-D-R-T-N-A-N-F-L^38-(G-G-G-G-G-G)-^73R-K-I-E-I-V-R-K-K^81-C [GP14]”, the “inhibition of labelled PDGF binding to human smooth muscle cells” value [2] was “potent inhibitors”.

In the case of “Ac-^25I-S-R-R-L-I-D-R-T-N-A-N-F-L^38-C (Ac-ISRRLIDRTNANFLC) [GP4]”, the “inhibition of binding of radiolabelled PDGF-BB to 3T3 cells” value (3T3 cells) is reported as “modest inhibition”, the “stimulatory (mitogenic) effect” value (Swiss 3T3.A31) is reported as “highest stimulatory effect” and the “mitogenic effect upon reduction and alkylation of the C-terminal end cysteine residue” value (Swiss 3T3.A31; reduced and alkylated peptide) is reported as “almost completely abolished”. The “antibodies to the corresponding immunising peptide by ELISA” value [1] was “high titre antibodies” and the “antibodies produced by the peptide reacted with native PDGF (Western immunoblot)” value (PDGF) was “reacted with the native PDGF”.

For “PDGF: 28-31 KD dimeric, highly basic glycoprotein, mitogen for connective tissue cells”, the “healing of large bed sores” value (large bed sores) is listed as “stimulates the healing of large bed sores”, the “SMC migration from the media to the intima” value [3] is listed as 20 fold and the “SMC proliferation in the media” value [3] is listed as 2-3 fold.

With “^73R-K-I-E-I-V-R-K-K-P-I-F-K-K-A-T-V^89 (RKIEIVRKKPIFKKATV) [GP21a]” the “antibodies produced by the peptide reacted with native PDGF (Western immunoblot)” value (PDGF) was “reacted with the native PDGF”.

In the case of polylysin, the “inhibition of PDGF binding to its receptor” value (PDGF receptor) is listed as “inhibit PDGF binding to its receptor”.

In the case of protamine sulphate, the “inhibition of PDGF binding to its receptor” value (PDGF receptor) is given as “inhibit PDGF binding to its receptor”.

Source: patent US6350731B1, “Platelet-derived growth factor analogues” (Trigen Limited, priority 1993, dated 2002)
